Our source for the IC50 values is US20210253575A1, “PYRROLIDINE AMINE COMPOUNDS FOR THE TREATMENT OF AUTOIMMUNE DISEASE” (Hoffmann-La Roche Inc., priority 2018, published 2021).

Each structure is given as a SMILES string.

This assay addresses T1, human TLR8 (Homo sapiens, UniProt Q9NR97).
T1 sequence (Q9NR97 27-1041): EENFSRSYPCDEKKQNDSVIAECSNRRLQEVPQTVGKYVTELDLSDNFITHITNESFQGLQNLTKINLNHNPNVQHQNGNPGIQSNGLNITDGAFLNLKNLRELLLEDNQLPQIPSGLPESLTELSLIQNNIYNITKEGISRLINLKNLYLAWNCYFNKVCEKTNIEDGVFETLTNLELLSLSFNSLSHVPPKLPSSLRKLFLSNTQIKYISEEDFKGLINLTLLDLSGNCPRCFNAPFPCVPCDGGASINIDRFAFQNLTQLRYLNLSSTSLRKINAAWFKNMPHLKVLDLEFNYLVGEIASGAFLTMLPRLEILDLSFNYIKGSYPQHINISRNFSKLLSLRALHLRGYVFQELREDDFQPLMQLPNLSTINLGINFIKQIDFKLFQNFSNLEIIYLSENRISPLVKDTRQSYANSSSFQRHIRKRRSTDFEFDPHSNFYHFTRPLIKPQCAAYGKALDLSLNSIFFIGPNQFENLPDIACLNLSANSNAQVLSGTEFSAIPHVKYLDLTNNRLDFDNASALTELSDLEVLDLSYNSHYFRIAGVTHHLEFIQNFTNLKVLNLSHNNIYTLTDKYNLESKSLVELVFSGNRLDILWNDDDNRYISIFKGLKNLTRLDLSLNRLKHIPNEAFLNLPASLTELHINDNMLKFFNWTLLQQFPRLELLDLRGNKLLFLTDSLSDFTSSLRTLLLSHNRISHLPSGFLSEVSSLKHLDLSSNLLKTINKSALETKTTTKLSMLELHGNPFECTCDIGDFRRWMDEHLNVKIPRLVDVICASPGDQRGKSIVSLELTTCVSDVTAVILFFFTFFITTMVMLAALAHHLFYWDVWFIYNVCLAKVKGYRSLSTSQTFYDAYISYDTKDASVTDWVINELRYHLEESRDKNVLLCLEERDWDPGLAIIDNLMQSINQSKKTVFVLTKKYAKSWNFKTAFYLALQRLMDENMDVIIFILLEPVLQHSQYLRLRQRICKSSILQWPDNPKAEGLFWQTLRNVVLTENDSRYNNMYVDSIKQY
Put plainly: HEK293-Blue-hTLR-8 cells assay (SEAP reporter, R848 stimulation). The class given is cell-based. The conditions noted are these: HEK293-Blue-hTLR8 cells, R848 ligand, 20 hrs incubation. On the procedure: The following tests were carried out in order to determine the activity of the compounds of formula (I) in HEK293-Blue-hTLR-7/8/9 cells assay.
HEK293-Blue-hTLR-8 Cells Assay:
A stable HEK293-Blue-hTLR-8 cell line was purchased from InvivoGen (Cat. #: hkb-htlr8, San Diego, Calif., USA). These cells were originally designed for studying the stimulation of human TLR8 by monitoring the activation of NF-κB. A SEAP (secreted embryonic alkaline phosphatase) reporter gene was placed under the control of the IFN-β minimal promoter fused to five NF-κB and AP-1-binding sites. The SEAP was induced by activating NF-κB and AP-1 via stimulating HEK-Blue hTLR8 cells with TLR8 ligands. Therefore the reporter expression was declined by TLR8 antagonist under the stimulation of a ligand, such as R848, for incubation of 20 hrs. The cell culture supernatant SEAP reporter activity was determined using QUANTI-Blue™ kit (Cat. #: rep-qb1, Invivogen, San Diego, Ca, USA) at a wavelength of 640 nm, a detection medium that turns purple or blue in the presence of alkaline phosphatase.
HEK293-Blue-hTLR8 cells were incubated at a density of 250,000˜450,000 cells/mL in a volume of 170 μL in a 96-well plate in Dulbecco's Modified Eagle's medium (DMEM) containing 4.5 g/L glucose, 50 U/mL penicillin, […], […], 2 mM L-glutamine, 10% (v/v) heat-inactivated fetal bovine serum with addition of 20 μL test compound in a serial dilution in the presence of final DMSO at 1% and 10 μL of 60 uM R848 in above DMEM, perform incubation under 37° C. in a CO2 incubator for 20 hrs. Then 20 μL of the supernatant from each well was incubated with 180 μL Quanti-blue substrate solution at 37° C. for 2 hrs and the absorbance was read at 620-655 nm using a spectrophotometer. The signalling pathway that TLR8 activation leads to downstream NF-κB activation has been widely accepted, and therefore similar reporter assay was modified for evaluating TLR8 antagonist.
Consider `N#Cc1ccc(N2C[C@H](CN3CCC4(CCNC4)CC3)[C@@H](C(F)(F)F)C2)c2cccnc12` [Example 54, 5-[(3S,4R)-3-(2,8-Diazaspiro[4.5]decan-8-ylmethyl)-4-(trifluoromethyl)pyrrolidin-1-yl]quinoline-8-carbonitrile], for which the IC50 was found to be 44 nM.

For the compound `N#Cc1ccc(N2C[C@H](CN3CCC(N)C(F)(F)C3)[C@@H](C(F)(F)F)C2)c2nccnc12` (stereo partly drawn) [Example 64, 8-[(3S,4R)-3-[(4-amino-3,3-difluoro-1-piperidyl)methyl]-4-(trifluoromethyl)pyrrolidin-1-yl]quinoxaline-5-carbonitrile], inhibition was half-maximal at 86 nM (IC50).

In turn, `N#Cc1ccc(N2CC(CN3CCOC4(CCNCC4)C3)C3(CC3)C2)c2nccnc12` (stereo not shown) [Example 67, 8-[7-(1-Oxa-4,9-diazaspiro[5.5]undecan-4-ylmethyl)-5-azaspiro[2.4]heptan-5-yl]quinoxaline-5-carbonitrile] displayed an IC50 of 41 nM. This IC50 is about 2.1-fold lower than that of the compound before.

`N#Cc1ccc(N2CC(CN3CCC4(CCNCC4)CC3)C3(CC3)C2)c2nccnc12` (stereo not shown) [Example 16, 8-[7-(3,9-Diazaspiro[5.5]undecan-3-ylmethyl)-5-azaspiro[2.4]heptan-5-yl]quinoxaline-5-carbonitrile] gave an IC50 of 133 nM.

In turn, `N#Cc1ccc(N2C[C@H](CN3CCC(N)CC3)[C@@H](C(F)(F)F)C2)c2nccnc12` [Example 51, 8-[(3S,4R)-3-[(4-amino-1-piperidyl)methyl]-4-(trifluoromethyl)pyrrolidin-1-yl]quinoxaline-5-carbonitrile] yielded an IC50 of 57 nM.

Compound `N#Cc1ccc(N2C[C@@H](CN3CCC4(CCNCC4)CC3)[C@H](C3CC3)C2)c2cccnc12` (relative stereo) [Example 28, 5-[Trans-3-cyclopropyl-4-(3,9-diazaspiro[5.5]undecan-3-ylmethyl)pyrrolidin-1-yl]quinoline-8-carbonitrile] registered an IC50 of 948 nM. Against the preceding compound, the IC50 is about 17-fold higher.

Compound `C[C@@H]1CN(c2ccc(C(F)(F)F)c3nccnc23)C[C@H]1CN1CCC2(CCNCC2)CC1` (relative stereo) [Example 21, 3-[[Trans-4-methyl-1-[8-(trifluoromethyl)quinoxalin-5-yl]pyrrolidin-3-yl]methyl]-3,9-diazaspiro[5.5]undecane] had an IC50 of 351 nM.

As for `N#Cc1ccc(N2CC(CN3C4CCC3CC(N)C4)C3(CC3)C2)c2nccnc12` (stereo not shown) [Example 25, 8-[7-[(3-Amino-8-azabicyclo[3.2.1]octan-8-yl)methyl]-5-azaspiro[2.4]heptan-5-yl]quinoxaline-5-carbonitrile], the IC50 was 108 nM.

Turning to `C[C@H]1CN(c2ccc(C#N)c3nccnc23)C[C@@H]1CN1CCC2(CCNC2)C1` (stereo partly drawn) [Example 30, 8-[(3S,4R)-3-(2,7-diazaspiro[4.4]nonan-2-ylmethyl)-4-methyl-pyrrolidin-1-yl]quinoxaline-5-carbonitrile], the IC50 was 72 nM. This IC50 lies about 1.5-fold lower than the previous one.

As to `C[C@H]1CN(C[C@H]2CN(c3ccc(C#N)c4nccnc34)C[C@@H]2C(F)(F)F)CC[C@H]1N` [Example 72, 8-[(3S,4R)-3-[[(3S,4R)-4-amino-3-methyl-1-piperidyl]methyl]-4-(trifluoromethyl)pyrrolidin-1-yl]quinoxaline-5-carbonitrile], the IC50 is 23 nM.

For the compound `N#Cc1ccc(N2C[C@H](CN3CC4(CC(N)C4)C3)[C@@H](C(F)(F)F)C2)c2nccnc12` [Example 47, 8-[(3S,4R)-3-[(6-amino-2-azaspiro[3.3]heptan-2-yl)methyl]-4-(trifluoromethyl)pyrrolidin-1-yl]quinoxaline-5-carbonitrile], the IC50 came to 74 nM.

Compound `N#Cc1ccc(N2CC(CN3CCC(N4CCOCC4)CC3)C3(CC3)C2)c2nccnc12` (stereo not shown) [Example 58, 8-[7-[(4-Morpholino-1-piperidyl)methyl]-5-azaspiro[2.4]heptan-5-yl]quinoxaline-5-carbonitrile] returned an IC50 of 91 nM. This IC50 and that of the compound before are within 1.5-fold of each other.

For the compound `N#Cc1ccc(N2C[C@H](CN3CC4(CCCNC4)C3)[C@@H](C(F)(F)F)C2)c2cccnc12` [Example 8, 5-[(3S,7R)-3-(2,8-diazaspiro[3.5]nonan-2-ylmethyl)-4-(trifluoromethyl)pyrrolidin-1-yl]quinoline-8-carbonitrile], 55 nM corresponded to half-maximal inhibition (IC50).

For the compound `N#Cc1ccc(N2C[C@H](CN3CCC4(CCNCC4)CC3)[C@@H](C(F)(F)F)C2)c2nccnc12` [Example 1, 8-[(3S,4R)-3-(3,9-diazaspiro[5.5]undecan-3-ylmethyl)-4-(trifluoromethyl)pyrrolidin-1-yl]quinoxaline-5-carbonitrile], inhibition was half-maximal at 20 nM (IC50). This IC50 lies about 2.8-fold lower than the previous one.

In turn, `N#Cc1ccc(N2CC(CN3C[C@H]4CNC[C@H]4C3)C3(CC3)C2)c2nccnc12` (stereo partly drawn) [Example 18, 8-[7-[[(3aR,6aS)-2,3,3a,4,6,6a-hexahydro-H-pyrrolo[3,4-c]pyrrol-5-yl]methyl]-5-azaspiro[2.4]heptan-5-yl]quinoxaline-5-carbonitrile] had an IC50 of 82 nM.

`CN(C)C1CCN(C[C@H]2CN(c3ccc(C#N)c4nccnc34)C[C@@H]2C(F)(F)F)CC1` [Example 80, 8-[(3S,4R)-3-[[4-(dimethylamino)-1-piperidyl]methyl]-4-(trifluoromethyl)pyrrolidin-1-yl]quinoxaline-5-carbonitrile]: the IC50 was found to be 32 nM. Compared with the last compound, the IC50 is about 2.6-fold lower.

With `FC(F)(F)c1ccc(N2CC(CN3C[C@H]4CNC[C@H]4C3)C3(CC3)C2)c2nccnc12` (stereo partly drawn) [Example 41, 5-[7-[[(3aR,6aS)-2,3,3a,4,6,6a-hexahydro-H-pyrrolo[3,4-c]pyrrol-5-yl]methyl]-5-azaspiro[2.4]heptan-5-yl]-8-(trifluoromethyl)quinoxaline], the IC50 is 357 nM. Compared with the last compound, the IC50 is about 11-fold higher.

`N#Cc1ccc(N2C[C@H](CN3CC4CCC(C3)C4N)[C@@H](C(F)(F)F)C2)c2nccnc12` (stereo partly drawn) [Example 73, 8-[(3S,4R)-3-[(8-amino-3-azabicyclo[3.2.1]octan-3-yl)methyl]-4-(trifluoromethyl)pyrrolidin-1-yl]quinoxaline-5-carbonitrile] showed an IC50 of 35 nM. Against the preceding compound, the IC50 is about 10-fold lower.

For `CNCC1CCN(C[C@H]2CN(c3ccc(C#N)c4nccnc34)C[C@@H]2C(F)(F)F)CC1` [Example 81, 8-[(3S,4R)-3-[[4-(methylaminomethyl)-1-piperidyl]methyl]-4-(trifluoromethyl)pyrrolidin-1-yl]quinoxaline-5-carbonitrile], the IC50 was 25 nM.

`N#Cc1ccc(N2C[C@H](CN3CCC(CN)CC3)[C@@H](C(F)(F)F)C2)c2nccnc12` [Example 74, 8-[(3S,4R)-3-[[4-(aminomethyl)-1-piperidyl]methyl]-4-(trifluoromethyl)pyrrolidin-1-yl]quinoxaline-5-carbonitrile]: the IC50 turned out to be 55 nM.

The compound `N#Cc1ccc(N2C[C@H](CN3CC4CCC3CN4)[C@@H](C(F)(F)F)C2)c2nccnc12` (stereo partly drawn) [Example 77, 8-[(3S,4R)-3-(2,5-diazabicyclo[2.2.2]octan-2-ylmethyl)-4-(trifluoromethyl)pyrrolidin-1-yl]quinoxaline-5-carbonitrile] yielded an IC50 of 26 nM. Compared with the last compound, the IC50 is about 2.1-fold lower.

Compound `N#Cc1ccc(N2C[C@H](CN3CCC(N4CCCC4)CC3)[C@@H](C(F)(F)F)C2)c2nccnc12` [Example 60, 8-[(3S,4R)-3-[(4-Pyrrolidin-1-yl-1-piperidyl)methyl]-4-(trifluoromethyl)pyrrolidin-1-yl]quinoxaline-5-carbonitrile] yielded an IC50 of 43 nM. Against the preceding compound, the IC50 is about 1.7-fold higher.
